Test results taken from US20100041089A1, “IMPROVED METHOD FOR DETECTING CHEMICAL […]” (priority 2006, published 2010).

Test system: yeast genes (expressed mRNA)
Assay: DNA chip measurement of expressed mRNA of yeast genes after culture with a toxic chemical substance
Type: cell-based, Saccharomyces cerevisiae S288C
Settings: for level of expressed mRNA in the presence of chemical substance / level in the absence of chemical substance: cultured two hours with the chemical substance; for The level of expressed mRNA in the presence of chemical substance/The level of expressed mRNA in the absence of chemical substance: cultured two hours with substance
Outline: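 Expression is given as treated/untreated fluorescence ratio on a whole-genome yeast DNA chip, a ratio of two or more being significant. Log-phase S288C cultures in YPD at 25 °C received the chemical for 2 h at a dose that slows growth without killing. mRNA was reverse-transcribed with Cy3- or Cy5-dUTP.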

CCCCCCCCCCCCc1ccc(S(=O)(=O)[O-])cc1.[Na+] [(17), Sodium dodecylbenzosulfonate]
level of expressed mRNA in the presence of chemical substance / level in the absence of chemical substance (yeast gene YJL097W): 1.2 | The level of expressed mRNA in the presence of chemical substance/The level of expressed mRNA in the absence of chemical substance (yeast gene YJL151C): 3.5 | The level of expressed mRNA in the presence of chemical substance/The level of expressed mRNA in the absence of chemical substance (yeast gene YJL152W): 2.5 | The level of expressed mRNA in the presence of chemical substance/The level of expressed mRNA in the absence of chemical substance (yeast gene YJL161W): 1.9 | The level of expressed mRNA in the presence of chemical substance/The level of expressed mRNA in the absence of chemical substance (yeast gene YJL171C): 3.6 | The level of expressed mRNA in the presence of chemical substance/The level of expressed mRNA in the absence of chemical substance (yeast gene YJR008W): 1.5 | level of expressed mRNA in the presence of chemical substance / level in the absence of chemical substance (yeast gene YJR030C): 0.7 | The level of expressed mRNA in the presence of chemical substance/The level of expressed mRNA in the absence of chemical substance (yeast gene YJR054W): 0.9 | level of expressed mRNA in the presence of chemical substance / level in the absence of chemical substance (yeast gene YKL051W): 1.5 | The level of expressed mRNA in the presence of chemical substance/The level of expressed mRNA in the absence of chemical substance (yeast gene YKL071W): 1.0 | The level of expressed mRNA in the presence of chemical substance/The level of expressed mRNA in the absence of chemical substance (yeast gene YKL086W): 0.9 | level of expressed mRNA in the presence of chemical substance / level in the absence of chemical substance (yeast gene YKL097C): 1.1 | level of expressed mRNA in the presence of chemical substance / level in the absence of chemical substance (yeast gene YKL100C): 0.7 | The level of expressed mRNA in the presence of chemical substance/The level of expressed mRNA in the absence of chemical substance (yeast gene YKL151C): 1.4 | The level of expressed mRNA in the presence of chemical substance/The level of expressed mRNA in the absence of chemical substance (yeast gene YKL153W): 0.9 | The level of expressed mRNA in the presence of chemical substance/The level of expressed mRNA in the absence of chemical substance (yeast gene YKL195W): 1.4 | level of expressed mRNA in the presence of chemical substance / level in the absence of chemical substance (yeast gene YKR040C): 0.7 | The level of expressed mRNA in the presence of chemical substance/The level of expressed mRNA in the absence of chemical substance (yeast gene YKR091W): 1.6 | The level of expressed mRNA in the presence of chemical substance/The level of expressed mRNA in the absence of chemical substance (yeast gene YLR054C): 1.6 | The level of expressed mRNA in the presence of chemical substance/The level of expressed mRNA in the absence of chemical substance (yeast gene YLR149C): 1.3 | The level of expressed mRNA in the presence of chemical substance/The level of expressed mRNA in the absence of chemical substance (yeast gene YLR152C): 1.5 | The level of expressed mRNA in the presence of chemical substance/The level of expressed mRNA in the absence of chemical substance (yeast gene YLR194C): 1.0 | level of expressed mRNA in the presence of chemical substance / level in the absence of chemical substance (yeast gene YLR226W): 1.1 | The level of expressed mRNA in the presence of chemical substance/The level of expressed mRNA in the absence of chemical substance (yeast gene YLR324W): 1.2 | level of expressed mRNA in the presence of chemical substance / level in the absence of chemical substance (yeast gene YLR338W): 0.8 | The level of expressed mRNA in the presence of chemical substance/The level of expressed mRNA in the absence of chemical substance (yeast gene YLR350W): 1.6 | The level of expressed mRNA in the presence of chemical substance/The level of expressed mRNA in the absence of chemical substance (yeast gene YLR387C): 1.0 | level of expressed mRNA in the presence of chemical substance / level in the absence of chemical substance (yeast gene YLR392C): 0.8 | level of expressed mRNA in the presence of chemical substance / level in the absence of chemical substance (yeast gene YLR415C): 0.8 | level of expressed mRNA in the presence of chemical substance / level in the absence of chemical substance (yeast gene YLR427W): 1.0 | The level of expressed mRNA in the presence of chemical substance/The level of expressed mRNA in the absence of chemical substance (yeast gene YLR460C): 1.0 | level of expressed mRNA in the presence of chemical substance / level in the absence of chemical substance (yeast gene YML013W): 1.1 | level of expressed mRNA in the presence of chemical substance / level in the absence of chemical substance (yeast gene YML029W): 1.2 | level of expressed mRNA in the presence of chemical substance / level in the absence of chemical substance (yeast gene YML041C): 1.3 | level of expressed mRNA in the presence of chemical substance / level in the absence of chemical substance (yeast gene YML079W): 1.4 | The level of expressed mRNA in the presence of chemical substance/The level of expressed mRNA in the absence of chemical substance (yeast gene YML117W): 1.1 | The level of expressed mRNA in the presence of chemical substance/The level of expressed mRNA in the absence of chemical substance (yeast gene YMR009W): 2.7 | The level of expressed mRNA in the presence of chemical substance/The level of expressed mRNA in the absence of chemical substance (yeast gene YMR067C): 1.0 | level of expressed mRNA in the presence of chemical substance / level in the absence of chemical substance (yeast gene YMR068W): 1.3 | level of expressed mRNA in the presence of chemical substance / level in the absence of chemical substance (yeast gene YMR071C): 1.2 | The level of expressed mRNA in the presence of chemical substance/The level of expressed mRNA in the absence of chemical substance (yeast gene YMR090W): 1.8 | The level of expressed mRNA in the presence of chemical substance/The level of expressed mRNA in the absence of chemical substance (yeast gene YMR095C): 1.0 | The level of expressed mRNA in the presence of chemical substance/The level of expressed mRNA in the absence of chemical substance (yeast gene YMR097C): 1.4 | The level of expressed mRNA in the presence of chemical substance/The level of expressed mRNA in the absence of chemical substance (yeast gene YMR102C): 2.4 | The level of expressed mRNA in the presence of chemical substance/The level of expressed mRNA in the absence of chemical substance (yeast gene YMR107W): 1.3 | level of expressed mRNA in the presence of chemical substance / level in the absence of chemical substance (yeast gene YMR160W): 0.9 | The level of expressed mRNA in the presence of chemical substance/The level of expressed mRNA in the absence of chemical substance (yeast gene YMR180C): 1.4 | The level of expressed mRNA in the presence of chemical substance/The level of expressed mRNA in the absence of chemical substance (yeast gene YMR184W): 1.4 | The level of expressed mRNA in the presence of chemical substance/The level of expressed mRNA in the absence of chemical substance (yeast gene YMR191W): 1.2 | The level of expressed mRNA in the presence of chemical substance/The level of expressed mRNA in the absence of chemical substance (yeast gene YMR295C): 2.1 | The level of expressed mRNA in the presence of chemical substance/The level of expressed mRNA in the absence of chemical substance (yeast gene YMR316W): 6.9 | level of expressed mRNA in the presence of chemical substance / level in the absence of chemical substance (yeast gene YNL026W): 1.0 | The level of expressed mRNA in the presence of chemical substance/The level of expressed mRNA in the absence of chemical substance (yeast gene YNL044W): 3.1
